Data published in US20240050735A1, “SYSTEMS AND METHODS FOR TREATING AND INHIBITING WOUND INFECTIONS” (priority 2020, published 2024).
Where “and” joins values, the source holds several entries; their conditions need not be identical. Equal entries are not always repeated. Structures can show the parent of a compound that is named as a salt. Where two headings read alike, the source gives them in different places.

Legend:
S. aureus biofilms = conditions: cited from earlier work
[1] = format: in vitro ADME; conditions: for permeation coefficient (Pc): 1 mg mL^−1 VAN; for accumulated concentration in wound tissue: 1 mg mL^−1 VAN loaded
Description: Investigations were also performed to determine the iontophoretic antibiotic delivery efficiency of the HIC-based biofilm treatment system 100 using high current intensities. These investigations included an ex vivo antibiotic delivery study using the same MRSA biofilm-infected porcine skin wound model as in the previous section. Vancomycin (VAN) was used here as a model drug, since it is the FDA-approved antibiotic and is the clinical gold standard for combating S. aureus infections.
First the VAN delivery efficiency was tested at different current intensities (from 0 mA cm^−2 (passive diffusion) to 75 mA cm^−2) applied by the HIC-based biofilm treatment system 100 for 1 hour. The drug/buffer chamber 114 of the working device 104 was loaded with 1 mg mL^−1 VAN in this study. The anode side was used as the working device 104 because VAN required anodal iontophoresis. The accumulated concentration of VAN in biofilm infected skin wound was measured immediately after iontophoresis using high performance liquid chromatography (HPLC). […] When 75 mA cm^−2 was used, the VAN concentration in wound tissue increased to 4.5±0.52 mg g^−1. The VAN concentration in wound tissue after passive diffusion, 0.5 mA cm^−2, and 19 mA cm^−2 iontophoresis were also measured. However, they could not be distinguished from the background interference of the residual biofilm components, so no quantitative results were obtained (data not shown). Importantly, the VAN concentration delivered by 75 mA cm^−2 iontophoresis for 1 hour exceeded the minimal biofilm eradication concentration (MBEC) of VAN reported for MRSA biofilm, which was 4 mg g^−1. The ability to deliver a lethal antibiotic concentration into biofilm-infected wounds within a short period of time was critical for biofilm treatment as it would minimize the chance for bacteria to develop adaptive tolerance.
The fetal pig skin samples (approximately 30×30 mm) were immersed in 10% (v/v) bleach for 5 minutes after hair removal. Then, skin samples were sterilized in 70% ethanol for 30 minutes. The surface of skin sample was further cleaned by 10% povidone-iodine and 70% isopropanol to prevent contamination. A 6-mm disposable biopsy punch was used to create an excisional wound. Samples were put into sterile 10-cm petri-dishes filled with sterile PBS (6 mL). The wound was then inoculated with 1×10^8 CFU mL^−1 MRSA bacteria solution (20 μL). The bacteria were allowed to grow in a 37° C. Heratherm™ compact microbiological incubator (ThermoFischer Scientific™, Waltham, Mass., USA) for 48 hours to form mature biofilms.
To evaluate the antibiotic delivery efficacy of VAN by high-intensity current, biofilm infected fetal pig skin wound was used. The DAP test setup was same as that of VAN, except no PBS chamber 122 was used. Instead, the inner surface of the skin wound contacted directly to the hydrogel 120 of the counter device 106. To evaluate the effect of electrical current intensity on the drug delivery efficacy, different current intensities from 0 to 75 mA cm^−2 were applied. To evaluate the effect of loading concentration of antibiotics, different concentrations of VAN and DAP from 1 mg mL^−1 to 10 mg mL^−1 were used. Since VAN is […] and DAP is negatively charged under physiological environment, anode HIC-based device was placed facing biofilm for VAN iontophoresis, and cathode HIC-based device was placed facing biofilm for DAP iontophoresis. Samples were collected immediately after different treatments. The concentrations of antibiotics delivered into skin wound samples were measured by high-performance liquid chromatography (HPLC). The permeation coefficient (Pc, cm s^−1) was then calculated (Pc=J/C, where J is antibiotic delivery flux in tissue samples (μg (cm^2s)^−1, C is the loading concentration of antibiotic solution (μg m L^−1)). […]

planktonic MRSA = assay: Time-killing test on planktonic MRSA in stationary phase; format: cell-based, Methicillin-resistant S. aureus (MRSA) USA300; conditions: 10 mg mL^−1 VAN, 4-day incubation
Description: MRSA bacteria was cultured in LB media in a 37° C. water shaking bath overnight to reach the concentration of 1×10^8 CFU mL^−1. Then, they were diluted to 10^5 CFU mL^−1 in 96-well plates by adding different concentrations of VAN solutions. After incubation for 24 hours without shaking, MIC of VAN to inhibit MRSA growth was measured by a Biotek Synergy H1 hybrid multi-mode microplate reader (BioTek, Winooski, Vt., USA) at OD600. To evaluate the killing time of VAN to bacteria in stationary phase (1×10^8 CFU mL^−1), VAN powder was added to bacteria solution to obtain concentration of 1 mg mL^−1, 3 mg mL^−1, 5 mg mL^−1, and 10 mg mL^−1, respectively, while remaining MRSA concentration of 1×10^8 CFU mL^−1. After incubation in a 37° C. water bath for 1 day, 2 days, 3 days and 4 days, the CFU of MRSA cells was tested by the standard plate spread counting assay, respectively. The time-killing tests of DAP with different concentrations (0.1 mg mL^−1, 0.5 mg mL^−1, 1 mg mL^−1, and 5 mg mL^−1) on MRSA planktonic cells were also performed, with the incubation time up to 24 hours.

[2] = tested on: S. aureus persister cells; conditions: even at 100×MIC; cited from earlier work

Structure (SMILES): CN[C@H](CC(C)C)C(=O)N[C@H]1C(=O)N[C@@H](CC(N)=O)C(=O)N[C@H]2C(=O)N[C@H]3C(=O)N[C@H](C(=O)N[C@H](C(=O)O)c4cc(O)cc(O)c4-c4cc3ccc4O)[C@H](O)c3ccc(c(Cl)c3)Oc3cc2cc(c3O[C@@H]2O[C@H](CO)[C@@H](O)[C@H](O)[C@H]2O[C@H]2C[C@](C)(N)[C@H](O)[C@H](C)O2)Oc2ccc(cc2Cl)[C@H]1O [VAN, Vancomycin hydrochloride]
- diffusion coefficient in S. aureus biofilms (S. aureus biofilms; 2012 study): 0.2 μm 2 s^−1
- slower than its diffusion in water (S. aureus biofilms; S. aureus biofilms): more than 1,000 times
- conventional Pc lower than Pc by 75 mA cm^−2 HIC iontophoresis ([1]; 0.31 mA cm^−2 conventional vs 75 mA cm^−2 HIC): 980 times
- permeation coefficient (Pc) ([1]; 38 mA cm^−2, 1 hour): 112.0±20.97 ×10^−6 cm s^−1
- accumulated concentration in wound tissue ([1]; 38 mA cm^−2, 1 hour): 2.5 ± 0.32 mg/g
- permeation coefficient (Pc) ([1]; 75 mA cm^−2, 1 hour): 216.5±18.96 ×10^−6 cm s^−1
- accumulated concentration in wound tissue ([1]; 75 mA cm^−2, 1 hour, hydrochloride): 4.5 ± 0.52 mg/g and 4.5 mg/g
- concentration in wound tissue ([1]; 75 mA cm^−2, 1 hour, 5 mg mL^−1 VAN loaded): more than 16 mg g^−1
- concentration in wound tissue ([1]; 75 mA cm^−2, 1 hour, 10 mg mL^−1 VAN loaded): more than 16 mg g^−1
- bacterial count after incubation (from 10^8 CFU g^−1) (planktonic MRSA): 10^6 CFU g^−1
- killing of S. aureus persister cells [2]: not capable of killing
